Laboratory results as given in patent US20250296929A1, “NOVEL HEPATOSELECTIVE POLYADENYLATING POLYMERASES INHIBITORS AND THEIR METHOD OF USE” (BARUCH S. BLUMBERG INSTITUTE, priority 2021, published 2025).

What was measured:
[1] = tested on: HBsAg secretion, HBV producing cell line HepG2.2.15; test: Cellular assay: HBsAg inhibition in HBV producing cell line HepG2.2.15; assay type: cell-based; settings: Hepatitis B virus
Method: Cellular assays method 1: Cellular assays: The HBV producing cell line HepG2.2.15 was cultured in DMEM/F12 containing 10% fetal bovine serum (FBS), 100 U/ml penicillin and 100 μg/ml streptomycin (Invitrogen). Compounds of the disclosure in DMSO was added into the culture medium when cell reached 100% confluence. The final concentration of DMSO was adjusted to 0.5%. Culture medium was replaced in two days and the cell was cultured for additional two days in the presence of compound. HBsAg inhibition in culture medium was then detected with AlphaLisa assay using anti-HBsAg antibodies of 10-H05H and 60C-CR2100RB from Fitzgerald Internantional. To examine the change of nucleic acid, total RNA was extracted with Trizol reagents and resolved in glyoxal agarose gel. HBV RNA blotted onto nitrocellulose membrane was measured with P32 labeled ribo-probe. Reduction and shortening of viral RNA indicates on target effect of the tested compound. […] HepG2.2.15 cells were first seeded in 96-well plate (Corning, Cat #: CLS3595) at density of 10,000 cells/well in 100 ul DMEM/F12 medium containing 10% FBS. When cells reached 100% confluence, treatment with compounds of the disclosure was initiated, and cells were cultured in the way as described for HBsAg inhibition study. Four days post drug treatment, 100 ul of CellTiter-Glo reagents (Promega, Cat #G7570) were added into each well and the mixture was incubated at 23° C. for 12 minutes, followed by the reading of luminescent signal in Tecan's Infinite 200 PRO. Compound IC50 on HBsAg and CC50 on cell viability were calculated using Graphpad prism. The IC50 and CC50 are defined as the compound concentration (or conditioned media log dilution) at which HBsAg secretion and cytotoxicity, respectively, are reduced by 50% compared to the no drug control.
Cellular assays method 2: HepG2.2.15 cells were seeded in duplicate into white, 96-well plates at 1.5×10^4 cells/well. The cells were treated with a 3-fold serial dilution series of the compounds in DMSO. The final DMSO concentration in all wells was 1%, and DMSO was used as no drug control. The HBsAg chemiluminescence immunoassay (CLIA) kit (Autobio Diagnostics Co., Zhengzhou, China) was used to measure the levels of secreted HBV antigens semi-quantitatively. For the detection, 50 μL/well culture supernatant was used and the procedure conducted as directed by manufacturer's instructions. The cytotoxicity was measured using CellTiter-Glo (Promega, Madison, WI, USA, catalogue no. G7571). Dose-response curves were generated and the IC50 and CC50 values were calculated using Graphpad prism. The IC50 and CC50 are defined as the compound concentration (or conditioned media log dilution) at which HBsAg secrection and cytotoxicity, respectively, are reduced by 50% compared to the no drug control.

OATP1B3 = molecular target: T1, OATP1B3 (Homo sapiens, UniProt Q9NPD5); test: OATP1B3 transporter substrate uptake in OATP1B3-HEK293 cells; assay type: in vitro ADME; settings: test concentration 1 μM
T1 construct: expressed in transfected cells; host or cells: HEK293
T1 sequence (Q9NPD5 1-702): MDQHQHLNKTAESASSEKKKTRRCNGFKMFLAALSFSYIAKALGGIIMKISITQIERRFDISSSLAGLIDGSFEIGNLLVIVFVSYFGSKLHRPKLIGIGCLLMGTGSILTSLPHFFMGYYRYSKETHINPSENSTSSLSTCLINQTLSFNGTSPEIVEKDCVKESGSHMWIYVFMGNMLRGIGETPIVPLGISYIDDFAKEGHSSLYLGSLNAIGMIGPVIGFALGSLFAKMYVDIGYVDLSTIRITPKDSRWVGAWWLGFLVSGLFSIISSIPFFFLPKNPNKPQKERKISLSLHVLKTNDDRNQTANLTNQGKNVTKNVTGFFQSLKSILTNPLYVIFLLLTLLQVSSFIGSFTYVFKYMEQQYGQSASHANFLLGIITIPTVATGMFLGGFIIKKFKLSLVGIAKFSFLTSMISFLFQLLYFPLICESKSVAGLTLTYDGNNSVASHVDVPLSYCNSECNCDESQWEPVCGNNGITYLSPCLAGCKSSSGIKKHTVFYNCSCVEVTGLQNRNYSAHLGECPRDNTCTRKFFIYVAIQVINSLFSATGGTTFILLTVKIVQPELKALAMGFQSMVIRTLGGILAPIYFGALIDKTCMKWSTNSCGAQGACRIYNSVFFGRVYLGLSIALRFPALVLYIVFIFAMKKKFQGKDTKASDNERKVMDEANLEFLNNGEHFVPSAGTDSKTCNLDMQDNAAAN
Method: Protocol for identification of compounds that are substrates of transporters OATP1B1 and OATP1B3. Transfected HTEK293 and vector control HTEK293 cells were cultured in 24-well poly-D-lysine or collagen-coated tissue culture plates ([…]) for 2 and 10 minutes respectively in transport buffer (HIBSSg, pH 7.4, pre-warmed to 37° C.). At a defined time point, the uptake experiments were stopped by removing dosing solution followed by two washes of ice-cold HIBSSg buffer. The cells were lysed for 2 minutes with […] containing an appropriate internal standard (when available). Lysis buffer were chilled to −20° C., and the plate was kept on ice during lysis. The cell lysate was transferred into a 96-well plate for sample analysis with LC-MS/MS analysis to determine concentration of test compound in cell lysate. The uptake of test compounds was normalized by total cell protein using the BCA Protein Assay Kit following the manufacturer's protocol. The inhibitor Rifamycin SV was used to block OATP1B1 and OATP1B3 transporter activity in order to determine uptake ratios.

`COc1cc2c(cc1OCCCCCCC(=O)O)C[C@@H](C(C)C)n1cc(C(=O)O)c(=O)cc1-2` [Example 6, (S)-9-((6-carboxyhexyl)oxy)-6-isopropyl-10-methoxy-2-oxo-6,7-dihydro-2H-pyrido[2,1-a]isoquinoline-3-carboxylic acid] was tested. Which EC50 [1] did it give?
Its EC50 is 23 nM.

What about the “Uptake Ratio (−/+Inhibitor)” value (OATP1B3; OATP1B3-HEK293 cells, inhibitor Rifamycin SV) of the same compound?
Its value is 11.57.

What about the “Uptake Ratio (Transporter(−Inhibitor)/Mock(−Inhibitor))” value (OATP1B3; OATP1B3-HEK293 vs Mock) of the same compound?
Its value is 24.80.
